Series [1] deals with HaCaT keratinocytes. The series can be described thus: Proliferation inhibition of HaCaT keratinocytes with or without light. It counts as cell-based. The note with it: for cell proliferation relative to a control (antiproliferative effect): 500 μM compound, HaCaT keratinocytes, no light or UVA 3.3 J/cm^2, 3 days after stimulation. The protocol: (§1) A series of experiments were carried out on HaCaT keratinocytes, and human CF3 fibroblasts. In these experiments, cell samples were contacted with 500 μM of pyridinoline, 500 μM of desmosine, which is an elastin constituent with a structure related to pyridinoline, or 500 μM of vitamin B6 (pyridoxine). Controls received no added compound. In one set of experiments, the cells received no external light source. In another set of experiments, they received UVA light, at 3.3 J/cm^2. The CF3 fibroblasts received solar simulated light, or “SSL,” which combines 2.3 J/cm^2 of UVA light, and 0.12 J/cm^2 of UVB light. Results are shown, in FIG. 2, in terms of percent of cell proliferation relative to a control (no added compound, no light). The measurements were taken 3 days after stimulation.
HaCaT cells, as described supra, were tested in a proliferation inhibition assay. Cell samples received equal amounts of one of the 4 compounds listed supra and were contacted with or without either solar simulated light (“SSL”) as described, supra, or UVA light alone, also as described supra.
The antiproliferative effect of the complexes described in example 4 were tested, by adding either nothing (control), BSA, or the BSA-B6 complexes, and treating or not treating samples of HaCaT keratinocytes with SSL. The BSA and BSA-B6 were added at 10 mg/ml, and the SSL was 2.3 J/cm^2 of UVA plus 0.12 J/cm^2 UVB. Three days after treatment, proliferation was measured using a Coulter counter, and standard methods.

Series [2] has as its system skin fibroblasts (CF3 cells). Put plainly: Cell protection against sensitized photodamage (TB plus visible light). Format: cell-based, human. The note with it: test compound 10 mM, TB 3.3 μM, visible light 10.8 J/cm^2; for Cell Protection against Sensitized Photodamage: ± SD, n = 3, CF3 fibroblasts counted after 3 days; for protective effect against sensitized photodamage, in words: CF3 fibroblasts. As for the experimental part:
Cultured skin fibroblasts (CF3 cells) were exposed to photooxidative stress from ^1O2 which had formed, in situ, by dye sensitization.
In brief, 50,000 fibroblasts were seeded in a 35 mm culture dish, and then treated one day later with visible light (90 seconds exposure, providing 10.8 J/cm^2) in the presence or absence of TB (3.3 μM in Hanks buffered salt solution). Five minutes after treatment, cells were washed, with phosphate buffered saline. Test compound (10 mM) was present or absent in the culture during the radiation. After 3 days of cultivation, cells were harvested via trypsinization, and counted using a Coulter counter.
Protection was determined via the formula: […]

Series [3] has as its system ΦX174 plasmid. The series can be described thus: Suppression of AGE-sensitized DNA (plasmid) cleavage. It counts as biochemical. The settings on record: for suppression of AGE-sensitized plasmid cleavage, in words: as in Table 1. An excerpt:
It is well known that ΦX174 plasmid is cleaved only by combined action of irradiation from solar simulated light, and AGE-pigment enriched protein, which acts as a UV sensitizer. AGE-BSA (“advanced glycation end product” modified bovine serum albumin), is a model for accumulation of endogenous skin sensitizers of the type described supra. Details of the assay showing this will be found in Wondrak, et al., Photochem. Photobiol. […] This assay was used in this example.
Plasmid cleavage was visualized by running samples on 1% agarose gels, and damage, i.e., formation of relaxed, open circular forms from closed circular forms (undamaged) were quantified via densitometry, which permitted assessment of the protective effect of a compound.
AGE-cleavage proceeds in the absence of oxygen, and cannot be suppressed fully via antioxidants. As such, if a compound suppresses plasmid cleavage it cannot be simply considered an antioxidant. In contrast, inhibition via quenching of the excited state, as described supra, must be presumed.
Using this assay, a series of proline related compounds and proline were tested. The structures of the compounds are set forth at FIG. 10. FIG. 11, sets forth the results of these experiments. […]

For series [4] the following is noted: mixture of TB and L-Pro in PBS; visible light 36 J/cm^2.
The subject of series [5] is human CF3 fibroblasts. Put plainly: Proliferation inhibition of CF3 fibroblasts with or without solar simulated light. The note with it: 500 μM compound, no light or SSL (2.3 J/cm^2 UVA, 0.12 J/cm^2 UVB), 3 days after stimulation. It counts as cell-based. As for the experimental part: as §1

In the case of `Oc1cccnc1` [3-hydroxypyridine], the “type of light in whose presence the compound functioned” value in series [1] (HaCaT cells, SSL or UVA alone) is reported as “functioned in the presence of UVB light as a cell proliferation inhibitor”. In series [1] (equal amounts of compound, with or without SSL or UVA light), the “effect on HaCaT cells in proliferation inhibition assay, compared to controls” value is listed as “inhibitory effect”.

Take `O=C(O)[C@@H]1CC(O)CN1` (stereo partly drawn) [4-OH-L-Pro, 4-hydroxy-L-proline]: the “Cell Protection against Sensitized Photodamage” value (“Cell Protection” for short) in series [2] amounted to 7.3 ± 2.5%.

`COC(=O)[C@@H]1CC(O)CN1` (stereo partly drawn) [4-OH-L-Pro-OCH3, 4-OH-L-proline methyl ester]: in series [2], the “protective effect against sensitized photodamage, in words” value is “very clear protective effect” and the “Cell Protection” value amounted to 71.0 ± 13.4%.

For `CC(C)(S)[C@@H](N)C(=O)O` [D-Penicillamine, D-penicillamine], in series [3] (20 mM), the “% Inhibition (±SD) of AGE-sensitized DNA cleavage” value (from here on “% Inhibition (±SD)”) is 95.7 ± 0.7%. Besides, in series [3], the “suppression of AGE-sensitized plasmid cleavage, in words” value (“suppression” for short) is given as “effective”.

As for `C1CN2CCN1CC2` [DABCO], the “% Inhibition (±SD)” value in series [3] (20 mM) was found to be 32.9 ± 1.1%.

In the case of `CC(=O)N(O)CCCCCNC(=O)CCC(=O)N(O)CCCCCNC(=O)CCC(=O)N(O)CCCCCN` [DFO], in series [3] (1 mM), the “% Inhibition (±SD)” value is given as 51.3 ± 1.0%.

On to `N[C@@H](CCC(=O)N[C@@H](CS)C(=O)NCC(=O)O)C(=O)O` [GSH, glutathione], for which the “% Inhibition (±SD)” value in series [3] (20 mM) is reported as 100.0 ± 0.0%. Further, the “suppression” value in series [3] is “effective”.

On to `N[C@@H](Cc1c[nH]cn1)C(=O)O` [L-Histidine], for which the “% Inhibition (±SD)” value in series [3] (20 mM) was determined as 43.7 ± 0.4%.

Consider `O=C(O)[C@@H]1CCCN1` [L-Pro, proline], for which, in series [2], the “Cell Protection” value is 6.2 ± 5.4%. Moreover, in series [4], the “change in HPLC peak, retention time or AUC after light exposure (inertness toward 1O2)” value is listed as “No changes were observed”.

Take `COC(=O)[C@@H]1CCCN1` [L-Pro-OCH3]: the “quenching of photosensitized DNA damage (plasmid cleavage)” value in series [3] (test compound 100 mM, UVA 2.3 J/cm^2, AGE-BSA 10 mg/ml) was “most potent of the quenchers”. For the same compound, in series [2], the “protective effect against sensitized photodamage, in words” value was “very clear protective effect” and the “Cell Protection” value was found to be 83.8 ± 10.9%.

Regarding `OC[C@@H](O)[C@@H](O)[C@H](O)[C@H](O)CO` [Mannitol], the “% Inhibition (±SD)” value in series [3] (20 mM) is on record as 47.5 ± 2.5%.

Turning to `CC(=O)N[C@@H](CS)C(=O)O` [NAC, N-acetyl-L-cysteine], the “% Inhibition (±SD)” value in series [3] (20 mM) came to 99.4 ± 0.9%. In series [3], the “suppression” value is listed as “effective”.

Regarding `[N-]=[N+]=[N-].[Na+]` [NaN3], the “% Inhibition (±SD)” value in series [3] (20 mM) is given as 94.0 ± 0.5%. For the same compound, the “suppression” value in series [3] is recorded as “effective”.

Take `Cc1ncc(CO)c(CO)c1O` [Vitamin B6, pyridoxine]: the “cell proliferation relative to a control (antiproliferative effect)” value in series [1] and in series [5] was “dramatically more efficacy in inhibiting the cellular proliferation” throughout.

With `N[C@@H](CC[C@@H](O)C[n+]1cc(O)c(C[C@H](N)C(=O)O)c(CC[C@H](N)C(=O)O)c1)C(=O)[O-]` [pyridinoline], the “cell proliferation relative to a control (antiproliferative effect)” value is “antiproliferative effect, but only in the presence of light” in series [1] and “antiproliferative effect, but only in the presence of light” in series [5].

Turning to Catalase, the “effect of catalase on vitamin B6 sensitization” value in series [1] (catalase added at 400 μ/ml, cell type not stated) is listed as “absolutely no effect”. The “% Inhibition (±SD)” value in series [3] (400 u/mL) was determined as 57.5 ± 4.7%.

These data come from US7226937B2, “Methods for modulating phototoxicity” (Board of Regents on Behalf of the University of Arizona, priority 2002, dated 2007).
